Earlier results in patent US20040047946A1, “Methods and formulations useful for lowering the cholesterol content of egg yolk” (Kapac, LLC, priority 2002, published 2004).

Columns and labels:
[1] = system: hens; details: hens fed 0.0265% lovastatin for 35 days
[2] = system: chickens; details: chickens fed 2% and 4% sitosterol emulsified with carboxymethyl cellulose

| Compound | less cholesterol in eggs than those from hens that received only a corn-soybean diet [1] | cholesterol and total sterol content of the egg [2] | level of egg yolk sitosterol [2] |
| --- | --- | --- | --- |
| CC[C@H](C)C(=O)O[C@H]1C[C@@H](C)C=C2C=C[C@H](C)[C@H](CC[C@@H]3C[C@@H](O)CC(=O)O3)[C@H]21 [lovastatin] | 15% |  |  |
| CC[C@H](CC[C@@H](C)[C@H]1CC[C@H]2[C@@H]3CC=C4C[C@@H](O)CC[C@]4(C)[C@H]3CC[C@]12C)C(C)C [sitosterol] |  | significant reduction | increased |
